Melting point data for 35 compounds are collected here from a melting point compilation (Tetko et al.; mined from patent text by program, amines drawn as free bases though some values may be those of a salt).

Take `CN(C)CCC1(CO)c2ccccc2N(C)c2ccc(Cl)cc21` (stereo not given): the melting point (in general, the temperature, or range, at which the solid turns liquid) came to 100 °C.

The compound `COC(=O)c1cc(Cl)c(C)c(Br)c1` yielded a melting point of 53 to 55 °C.

Compound `CN1C(=O)C(NC(=O)Nc2ccc(Cl)c(Cl)c2)N=C(c2ccccc2)c2ccccc21` (stereo not given) registered a melting point of 274 to 276 °C.

`CCc1cc(Oc2ncc(C(F)(F)F)cc2Cl)n[nH]1` had a melting point of 55 to 57 °C.

With `COc1ccc(NC(=O)c2coc3c2C(=O)CCCC3)c(F)c1`, the melting point was 168 to 172 °C.

`CC(C)(C)c1cc(C(=O)C2CC2)cc(C(C)(C)C)c1O` yielded a melting point of 140 to 142 °C.

`CC1Cc2cc(O)c(Cl)c(Cl)c2C1=O` (stereo not given) registered a melting point of 224 to 230 °C.

On to `c1ccc(CNc2nc3cc(-c4ccccc4)nnc3c3ccccc23)cc1`, for which the melting point lay in the range of 207 to 209 °C.

Take `CS(=O)(=O)c1ccc(-c2cc(=O)n(CC3CCC3)nc2-c2ccc(F)cc2)cc1`: the melting point lay in the range of 74 to 76 °C.

In the case of `Cc1cccc(C)c1-n1cnc(NCc2ccccn2)nc1=O`, the melting point fell in the range of 165 to 166 °C.

The compound `CCOC(=O)C1=C(C#N)NC(C)=C(C(=O)OCCN(CC)CC)C1c1cccc([N+](=O)[O-])c1` (stereo not given) registered a melting point of 150 to 152 °C.

For `CCOCn1c(-c2ccc(Cl)cc2)c(S(=O)(=O)c2ccc(Cl)cc2)c(Br)c1C(F)(F)F`, the melting point lay within 107 to 112 °C.

For `Cc1ccc2c(-c3ccccc3)c([N+](=O)[O-])oc2c1`, the melting point was in the range of 142 to 144 °C.

For `CCCNc1cc(C(=O)O)cc(S(N)(=O)=O)c1Oc1ccccc1`, the melting point was in the range of 223 to 224 °C.

Consider `CN1CCNCCNCCCNCCNCC1`, for which the melting point was 85 to 87 °C.

`CCOC(=O)C1=C(C)NC(=S)N(C(=O)OCC)C1c1ccccc1C` (stereo not given): the melting point fell in the range of 112 to 114 °C.

`CN1CCC(c2c[nH]c3ccc(NC(=O)c4ccccn4)nc23)CC1` had a melting point of 221 to 223 °C.

`CCn1cc(C(=O)O)c(=O)c2cc(F)c(N3CCNC(c4ccn(S(=O)(=O)c5ccccc5)c4)C3)cc21` (stereo not given) showed a melting point of 120 °C.

As to `CCN(C(=O)C1CC1)c1cccc(-c2ccnc3c(C#N)cnn23)c1`, the melting point was 166 to 168 °C.

The compound `CC(C)(C)OC(=O)NC[C@H]1CN(c2ccc3c(c2)CC(C(C)(C)C)N3C=O)C(=O)O1` (stereo not given in full) gave a melting point of 153 to 161 °C.

As for `Cc1ccc(NC(=O)/C=C/c2ccccc2C(F)(F)F)cc1NC(=N)c1ccccc1`, the melting point fell in the range of 112 to 116 °C.

For `C1=C(c2coc3ccccc23)N2CCCN=C2S1`, the melting point fell in the range of 128 to 130 °C.

For `Cc1cc(-c2cnn3c(C(F)(F)F)cc(-c4ccc(OCC(F)(F)F)c(C(F)(F)F)c4)nc23)ccn1`, the melting point amounted to 210 °C.

Regarding `Clc1ccc(C2Cc3cnc(Nc4ccc(CCN5CCCCC5)cc4)nc3-c3ccccc32)cc1Cl` (stereo not given), the melting point was 157 to 158 °C.

Consider `CN1CC(CCCl)Oc2ccc(Cl)cc2C1=S` (stereo not given), for which the melting point lay in the range of 102 to 104 °C.

`CN(C)CCCCCCOc1ccc(C(=O)c2ccc(F)cc2)cc1` came in with a melting point of 37 to 38 °C.

As for `Cc1c2cccc(-c3cccc(C(=O)NCCO)c3)c2nn1Cc1cccc(C(F)(F)F)c1`, the melting point fell in the range of 142 to 143 °C.

As to `COCCOc1cc2cc(C(=O)OC)c(C(=O)OC)c(-c3ccncc3)c2cc1OC`, the melting point was in the range of 156 to 158 °C.

Compound `COC(=O)CS(=O)(=O)CCC=C1SC=CS1` gave a melting point of 133 to 135 °C.

For the compound `CC(=O)Oc1cccc(C(=O)N[C@H]2COC(C)(C)OC[C@@H]2OS(C)(=O)=O)c1C`, the melting point is 127 to 128 °C.

Take `O=C1N(Cc2ccc(C(F)(F)F)o2)c2ccccc2C12COc1ccc(=O)[nH]c12` (stereo not given): the melting point lay in the range of 175 to 177 °C.

Regarding `Brc1ccc2scc(Br)c2c1`, the melting point was in the range of 95 to 97 °C.

Take `CCOc1nc2c(cc1C)C(=O)c1ccccc1C2=O`: the melting point is 186 to 188 °C.

`COc1ccccc1[C@H](C)C(=O)N1C[C@@H]2[C@H](F)CCC(c3ccccc3)(c3ccccc3)[C@@H]2C1` yielded a melting point of 195 °C.

Take `O=C(O)c1ccccc1C(=O)N1CC2CCC(C1)O2`: the melting point was in the range of 149 to 150 °C.
